Legend:
pQR2189 [1] = tested on: T1, pQR2189; assay: HPLC initial rates, Michaelis-Menten fit; type: biochemical, uncultured bacterium (household drain metagenome); settings: apparent, PLP 1 mM, KPi pH 8 50 mM, 20% DMSO, 35 °C
T1 construct: N- and C-terminal His6 tags, pET-28a(+) NdeI/XhoI, expressed in E. coli BL21(DE3)
From the text: HPLC initial rates, Michaelis-Menten fit on pQR2189

pQR2189 [2] = tested on: T1, pQR2189; assay: continuous UV absorbance at […] nm, Michaelis-Menten fit; type: biochemical, uncultured bacterium (household drain metagenome); settings: apparent, PLP 0.1 mM, KPi pH 7.5 50 mM, 1% DMSO, 30 °C

CC(C)(C)OC(=O)N1CCC(=O)C1 [18a, 1-Boc-3-pyrrolidinone]
Km (pQR2189 [1]; isopropylamine 200 mM): 18.9 ± 3.1 mM

C[C@H](N)c1ccccc1 [(S)-7, (S)-α-methylbenzylamine]
Km (pQR2189 [2]; pyruvate 1 mM): 14.8 ± 3.2 mM

CC(=O)C(=O)O [compound 2, pyruvate]
Km (pQR2189 [2]; amine donor (S)-7 5 mM): 0.29 ± 0.08 mM

CC(C)N [compound 27, isopropylamine]
Km (pQR2189 [1]; 1-Boc-3-pyrrolidinone 10 mM): 10.6 ± 1.6 mM

Reference: article PMC6394892, “The identification and use of robust transaminases from a domestic drain metagenome” (Green Chemistry, 2018)
